From patent publication US20250268894A1, “MACROCYCLE COMPOUNDS FOR THE TREATMENT OF CANCER” (Hoffmann-La Roche Inc., priority 2022, published 2025)

What was measured:
[1] = system: NCI-H358 cells (KRAS G12C); assay: Cell viability assay (Cell Counting Kit-8), KRAS G12C; format: cell-based; conditions: Homo sapiens, NCI-H358, 72 hrs
Description: (§1) The purpose of this cellular assay was to determine the effects of test compounds on the proliferation of human cancer cell lines NCI-H358 (ATCC-CRL5807) cells, AGS (ATCC-CRL-1739) cells, SW620 (ATCC-CCL-227) over a 3-day treatment period by quantifying the amount of NADPH present at endpoint using Cell Counting Kit-8.
(§2) Cells were seeded at 5,000 cells/well (NCI-H358), 2,000 cells/well (AGS)2,000 cells/well (SW620) in 96-well assay plates (Corning-3699) and incubated overnight. On the day of the assay, diluted compounds were then added in a final concentration of 0.5% DMSO. After 72 hrs incubation, a tenth of the volume of cell counting kit 8 (Dnjindo-CK04) was added into each well. Read the signal (OD450 minus OD650) using EnVision after 2 hrs incubation. IC50 was determined by fitting a 4-parameter sigmoidal concentration response model.

AGS cells (KRAS G12D) = assay: Cell viability assay (Cell Counting Kit-8), KRAS G12D; format: cell-based; conditions: Homo sapiens, 72 hrs
Description: as §1, §2

SW620 cells (KRAS G12V) = assay: Cell viability assay (Cell Counting Kit-8), KRAS G12V; format: cell-based; conditions: Homo sapiens, SW-620, SW620, 72 hrs
Description: as §1, §2

[2] = system: phosphorylation of ERK, KRAS G12C in NCI-H358 cells; assay: pERK inhibition assay, KRAS G12C in NCI-H358 cells; format: cell-based, human; conditions: NCI-H358, 4 hours
Description: (§3) This assay is to measure the ability of test compounds in inhibiting the phosphorylation of ERK, the downstream signaling of KRAS G12C in NCI-H358 cells, KRAS G12D in AGS cells, and KRAS G12V in SW620. NCI-H358 (ATCC-CRL5807) cells, AGS (ATCC-CRL-1739) cells, SW620 (ATCC-CCL-227) cells were all grown and maintained using RPMI-1640 medium (Thermo Fisher Scientific) with 10% fetal bovine serum and 1% penicillin/streptomycin. On the day prior to compound addition, cells were plated in tissue culture-treated 96 well plates (Corning-3699) at a density of 30,000 cell/well, 20,000 cell/well, 30,000 cell/well for NCI-H358, AGS and SW620 respectively, and allowed for attachment overnight. Diluted compounds were then added in a final concentration of 0.5% DMSO. After 4 hours of incubation, the medium was removed, 100 μL of 4% formaldehyde was added, and the assay plates were incubated at room temperature for 20 minutes. The plates were then washed once with phosphate buffered saline (PBS), and permeabilized with 100 μL of chilled methanol for 10 minutes. Non-specific antibody binding to the plates was blocked using 50 μL 1X BSA blocking buffer (Thermo-37520, 10-fold dilution by Phosphate-Buffered Saline Tween (PBST) for at least 1 hour at room temperature.
(§4) The amount of phosphor-ERK was determined using an antibody specific for phosphorylated form of ERK. Primary antibody (PERK, CST-4370, Cell Signaling Technology) was diluted 1:300 in blocking buffer, with 50 μL aliquoted to each well, and incubated overnight at 4° C. Cells was washed five times for 5 minutes with PBST. Secondary antibody (HRP-linked anti-rabbit IgG, CST-7074, Cell Signaling Technology) was diluted 1:1000 in blocking buffer, and 50 μL was added to each well and incubated 1-2 hrs at room temperature. Cells was washed […] for 5 minutes with PBST, 100 μL TMB ELISA substrate (abcam-ab171523) were added and gently shake for 20 minutes. 50 μL stop solution (abcam-ab171529) were added, and then read the signal (OD450) by EnVision.
(§5) IC50 was determined by fitting a 4-parameter sigmoidal concentration response model.

[3] = system: phosphorylation of ERK, KRAS G12D in AGS cells; assay: pERK inhibition assay, KRAS G12D in AGS cells; format: cell-based, human; conditions: 4 hours
Description: as §3, §4, §5

[4] = system: phosphorylation of ERK, KRAS G12V in SW620 cells; assay: pERK inhibition assay, KRAS G12V in SW620; format: cell-based, human
Description: as §3, §4, §5

KRAS G12C-BRAF complex = KRAS G12C-BRAF complex (Homo sapiens (Human), UniProt P01116+P62937, G12C); assay: KRAS-BRAF with CYPA (500 nM) interaction assay (TR-FRET), G12C; format: biochemical
Description: (§6) Kras-BRAF with CYPA (500 nM) Interaction Assay In this example, TR-FRET was also used to measure the compound or compound-CYPA dependent disruption of the KRAS G12C-BRAF complex. This protocol was also used to measure disruption of KRAS G12D or KRAS G12V binding to BRAF by a compound of the invention, respectively. […] Compound was present in plate wells as a 16-point 3-fold dilution series starting at a final concentration of 10 μM and incubated for 3 hours. […] TR-FRET signal was read on a […] microplate reader (Ex320 nm, Em 665/615 nm). Compounds that facilitate disruption of the KRAS-BRAF complex were identified as those eliciting a decrease in the TR-FRET ratio relative to DMSO control wells.

KRAS G12D-BRAF complex = KRAS G12D-BRAF complex (Homo sapiens (Human), UniProt P01116+P62937, G12D); assay: KRAS-BRAF with CYPA (500 nM) interaction assay (TR-FRET), G12D; format: biochemical
Description: as §6

KRAS G12V-BRAF complex = KRAS G12V-BRAF complex (Homo sapiens (Human), UniProt P01116+P62937, G12V); assay: KRAS-BRAF with CYPA (500 nM) interaction assay (TR-FRET), G12V; format: biochemical
Description: as §6

[5] = Homo sapiens, SW-620, SW620, 4 hours

Chain of KRAS G12C-BRAF complex (P01116-2 other isoform, or with tags, fused parts or gaps G12C): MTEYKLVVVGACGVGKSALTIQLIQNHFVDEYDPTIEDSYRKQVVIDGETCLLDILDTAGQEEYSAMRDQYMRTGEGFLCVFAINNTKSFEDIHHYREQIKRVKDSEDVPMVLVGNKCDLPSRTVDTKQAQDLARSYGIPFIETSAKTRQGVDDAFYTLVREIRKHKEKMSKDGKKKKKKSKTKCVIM
Chain of KRAS G12C-BRAF complex (P62937 whole entry): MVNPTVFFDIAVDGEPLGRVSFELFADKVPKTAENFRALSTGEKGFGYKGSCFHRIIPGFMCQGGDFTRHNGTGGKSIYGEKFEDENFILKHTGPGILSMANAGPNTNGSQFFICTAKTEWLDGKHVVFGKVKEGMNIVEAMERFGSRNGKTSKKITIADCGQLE
Chain of KRAS G12V-BRAF complex (P01116-2 other isoform, or with tags, fused parts or gaps G12V): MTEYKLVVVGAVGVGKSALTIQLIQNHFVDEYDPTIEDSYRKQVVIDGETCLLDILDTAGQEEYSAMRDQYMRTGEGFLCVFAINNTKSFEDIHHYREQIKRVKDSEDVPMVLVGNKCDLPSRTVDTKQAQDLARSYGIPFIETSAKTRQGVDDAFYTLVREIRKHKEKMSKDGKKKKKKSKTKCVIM
Chain of KRAS G12V-BRAF complex (P62937 whole entry): as the sequence (P62937 whole entry) above
Chain of KRAS G12D-BRAF complex (P01116-2 other isoform, or with tags, fused parts or gaps G12D): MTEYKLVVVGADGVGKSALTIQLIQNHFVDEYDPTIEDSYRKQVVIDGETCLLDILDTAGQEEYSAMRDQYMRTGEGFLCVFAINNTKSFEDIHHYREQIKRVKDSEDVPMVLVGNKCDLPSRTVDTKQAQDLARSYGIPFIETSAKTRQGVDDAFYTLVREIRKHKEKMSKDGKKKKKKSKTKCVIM
Chain of KRAS G12D-BRAF complex (P62937 whole entry): as the sequence (P62937 whole entry) above

| IC50 [1] [nM] | IC50 (AGS cells (KRAS G12D)) [nM] | IC50 (SW620 cells (KRAS G12V)) [nM] | IC50 ([2]; Homo sapiens) [nM] | IC50 ([3]; Homo sapiens) [nM] | IC50 [4, 5] [nM] | Compound | IC50 (KRAS G12C-BRAF complex) [nM] | IC50 (KRAS G12D-BRAF complex) [nM] | IC50 (KRAS G12V-BRAF complex) [nM] | IC50 [2] [nM] | IC50 [3] [nM] | IC50 ([4]; SW620, 4 hours) [nM] |
| --- | --- | --- | --- | --- | --- | --- | --- | --- | --- | --- | --- | --- |
| 4 | 16 | 3 | 1 | 5 | 4 | CO[C@@H](C)c1ncc(N2CCN(C)CC2)cc1-c1c2c3c(F)c(ccc3n1CC(F)(F)F)-c1csc(n1)C[C@H](NC(=O)[C@H](C(C)C)N(C)C(=O)N1CC(N(C)C)C1)C(=O)N1CCC[C@H](N1)C(=O)OCC(C)(C)C2 (atropisomer, axis not shown; (M)) [Example 2, 3-(dimethylamino)-N-[(1S)-1-[[(7S,13S)-25-fluoro-(20M)-20-[2-[(1S)-1-methoxyethyl]-5-(4-methylpiperazin-1-yl)-3-pyridyl]-17,17-dimethyl-8,14-dioxo-21-(2,2,2-trifluoroethyl)-15-oxa-4-thia-9,21,27,28-tetrazapentacyclo[17.5.2.1^2,5.1^9,13.0^22,26]octacosa-1(25),2,5 (28),19,22 (26),23-hexaen-7-yl]carbamoyl]-2-methyl-propyl]-N-methyl-azetidine-1-carboxamide] | – | – | – | – | – | – |
| 1 | 15 | 1 | 1 | 1 | 1 | CO[C@@H](C)c1ncc(N2CCN(C)CC2)cc1-c1c2c3cc(ccc3n1CC(F)(F)F)-c1csc(n1)C[C@H](NC(=O)[C@H](C(C)C)N(C)C(=O)N1CCOCC1)C(=O)N1CCC[C@H](N1)C(=O)OCC(C)(C)C2 (atropisomer, axis not shown; (M)) [Example 3, N-[(1S)-1-[[(7S,13S)-24-fluoro-(20M)-20-[2-[(1S)-1-methoxyethyl]-5-(4-methylpiperazin-1-yl)-3-pyridyl]-17,17-dimethyl-8,14-dioxo-21-(2,2,2-trifluoroethyl)-15-oxa-4-thia-9,21,27,28-tetrazapentacyclo[17.5.2.1^2,5.1^9,13.0^22,26]octacosa-1 (25),2,5 (28),19,22 (26),23-hexaen-7-yl]carbamoyl]-2-methyl-propyl]-N-methyl-morpholine-4-carboxamide] | – | – | – | – | – | – |
| 3 | 17 | 1 | 1 | 3 | 1 | CO[C@@H](C)c1ncc(N2CCOCC2)cc1-c1c2c3cc(c(F)cc3n1CC(F)(F)F)-c1csc(n1)C[C@H](NC(=O)[C@H](C(C)C)N(C)C(=O)N1CC(N(C)C)C1)C(=O)N1CCC[C@H](N1)C(=O)OCC(C)(C)C2 (atropisomer, axis not shown; (M)) [Example 4, 3-(dimethylamino)-N-[(1S)-1-[[(7S,13S)-24-fluoro-(20M)-20-[2-[(1S)-1-methoxyethyl]-5-morpholino-3-pyridyl]-17,17-dimethyl-8,14-dioxo-21-(2,2,2-trifluoroethyl)-15-oxa-4-thia-9,21,27,28-tetrazapentacyclo[17.5.2.1^2,5.1^9,13.0^22,26]octacosa-1 (25),2,5 (28),19,22 (26),23-hexaen-7-yl]carbamoyl]-2-methyl-propyl]-N-methyl-azetidine-1-carboxamide] | – | – | – | – | – | – |
| – | – | – | – | – | – | CCn1c(-c2cc(N3CCOCC3)cnc2[C@H](C)OC)c2c3cc(c(F)cc31)-c1csc(n1)C[C@H](NC(=O)[C@H](C(C)C)N(C)C(=O)N1CC(F)(F)C1)C(=O)N1CCC[C@H](N1)C(=O)OCC(C)(C)C2 (atropisomer, axis not shown; (M)) [Example 7, N-[(1S)-1-[[(7S,13S)-21-ethyl-24-fluoro-(20M)-20-[2-[(1S)-1-methoxyethyl]-5-morpholino-3-pyridyl]-17,17-dimethyl-8,14-dioxo-15-oxa-4-thia-9,21,27,28-tetrazapentacyclo[17.5.2.1^2,5.1^9,13.0^22,26]octacosa-1 (25),2,5 (28),19,22 (26),23-hexaen-7-yl]carbamoyl]-2-methyl-propyl]-3,3-difluoro-N-methyl-azetidine-1-carboxamide] | 95 | 472 | 611 | – | – | – |
| 12 | 57 | 7 | 24 | 24 | 5 | CCn1c(-c2cc(N3CCOCC3)cnc2[C@H](C)OC)c2c3cc(c(F)cc31)-c1csc(n1)C[C@H](NC(=O)[C@H](C(C)C)N1CCN(C)C1=O)C(=O)N1CCC[C@H](N1)C(=O)OCC(C)(C)C2 (atropisomer, axis not shown; (M)) [Example 8, (2S)-N-[(7S,13S)-21-ethyl-24-fluoro-(20M)-20-[2-[(1S)-1-methoxyethyl]-5-morpholino-3-pyridyl]-17,17-dimethyl-8,14-dioxo-15-oxa-4-thia-9,21,27,28-tetrazapentacyclo[17.5.2.1^2,5.1^9,13.0^22,26]octacosa-1 (25),2,5 (28),19,22 (26),23-hexaen-7-yl]-3-methyl-2-(3-methyl-2-oxo-imidazolidin-1-yl) butanamide] | – | – | – | – | – | – |
| – | – | – | – | – | – | COC(C)c1ncc(N2CCN(CC(F)(F)F)CC2)cc1-c1c2c3cc(c(F)cc3n1CC(F)(F)F)-c1csc(n1)CC(NC(=O)C(C(C)C)N(C)C(=O)N1CCN(C)CC1)C(=O)N1CCCC(N1)C(=O)OCC(C)(C)C2 [Example 18, N-[(1S)-1-[[(7S,13S)-24-fluoro-(20M)-20-[2-[(1S)-1-methoxyethyl]-5-[4-(2,2,2-trifluoroethyl)piperazin-1-yl]-3-pyridyl]-17,17-dimethyl-8,14-dioxo-21-(2,2,2-trifluoroethyl)-15-oxa-4-thia-9,21,27,28-tetrazapentacyclo[17.5.2.1^2,5.1^9,13.0^22,26]octacosa-1 (25),2,5 (28),19,22 (26),23-hexaen-7-yl]carbamoyl]-2-methyl-propyl]-N,4-dimethyl-piperazine-1-carboxamide] | – | – | – | 23 | 12 | 7 |
| – | – | – | – | – | – | COC(C)c1ncc(N2CCN(CC(F)(F)F)CC2)cc1-c1c2c3cc(c(F)cc3n1CC(F)(F)F)-c1csc(n1)CC(NC(=O)C(C(C)C)N(C)C(=O)N1CCN(CC(F)(F)F)CC1)C(=O)N1CCCC(N1)C(=O)OCC(C)(C)C2 [Example 19, N-[(1S)-1-[[(7S,13S)-24-fluoro-(20M)-20-[2-[(1S)-1-methoxyethyl]-5-[4-(2,2,2-trifluoroethyl)piperazin-1-yl]-3-pyridyl]-17,17-dimethyl-8,14-dioxo-21-(2,2,2-trifluoroethyl)-15-oxa-4-thia-9,21,27,28-tetrazapentacyclo[17.5.2.1^2,5.1^9,13.0^22,26]octacosa-1 (25),2,5 (28),19,22 (26),23-hexaen-7-yl]carbamoyl]-2-methyl-propyl]-N-methyl-4-(2,2,2-trifluoroethyl) piperazine-1-carboxamide] | – | – | – | 66 | 54 | 16 |
